{
  "source": "patent US7557092B2",
  "about": "“Purinergic modulation of smell” (University of Utah Research Foundation, priority 2002, dated 2009)",
  "key": {"[1]": {"tested_on": "cultured mouse olfactory receptor neurons (ORNs)", "assay": "nystatin perforated-patch voltage-clamp of cultured ORNs", "format": "cell-based", "conditions": "10 μM ATP", "method": "The physiological activation of purinergic receptors in cultured mouse ORNs (Vargas and Lucero, 1999a) were examined using both electrophysiology (Danaceau and Lucero, 1998)(FIG. 2A), and calcium imaging (FIG. 2B-E). ATP (10 μM) evoked inward currents in 39% (27/69 ORNs) of the perforated-patched mouse ORNs during brief (1-10 s) applications (FIG. 2A). […] Rapid activation of inward current that closely followed the ATP stimulus profile with little or no desensitization was also observed, indicating involvement of non-desensitizing ionotropic P2X receptors [P2X4 and/or P2X7] (Ralevic and Burnstock, 1998)(FIG. 2A, cell 2) (14/27 cells; latency=81±15 ms, Imax=−235±74 pA). These electrophysiological results support the immunohistochemical evidence of expression of both purinergic receptor subtypes in ORNs.\nTo prepare olfactory epithelium slices, neonatal mice (postnatal day 0-6) were quickly decapitated, and the skin and lower jaw were removed. Tissue was mounted in ice cold Ringers onto a vibratome-cutting block and 300 μm slices were made. Primary cultures of mouse ORNs were made using the same protocol and culture conditions as described for rat olfactory receptor neurons (Vargas and Lucero, 1999a). Briefly, tissue was placed in divalent cation-free Ringers containing 10 mg/ml bovine serum albumin, 1 mg/ml deoxyribonuclease II and 44 U/ml dispase, incubated at 37° C. for 45 min. The tissue was washed, triturated, and filtered through a […] mesh and […] cells were plated onto concanavalin A-coated coverslips and allowed to settle for 20 min. An additional 1.5 ml of culture medium was added (DMEM supplemented with […] ascorbic acid, 1X insulin-transferrin-seleniumX (GIBCO BRL), 2 mM glutamine, 100 U/ml penicillin G and […] streptomycin).\nThe nystatin perforated-patch technique (Horn and Marty, 1988) was used to examine cells under voltage-clamp. Electrodes (2-5 MΩ) were filled with TMA-oxide internal solution (in mM: 62.5 TMA oxide, 62.5 KH2PO4, 15 KCl, 5 MgCl2, 11 EGTA, 10 HEPES, 1 glutathione, 5 TEA, 0.03% pluronic acid F-127, 0.3% DMSO, […] nystatin, pH 7.2, 330 mOsm)."}, "[2]": {"tested_on": "odor responses of mouse ORNs in olfactory epithelium slices", "assay": "co-application of odor and purinergic receptor agonist, calcium transients in olfactory epithelium slices", "format": "cell-based"}, "[3]": {"conditions": "cells with long latent period (P2Y-like), 13/27 cells"}, "[4]": {"conditions": "rapidly activating cells (P2X-like), 14/27 cells"}},
  "note": "Several values for one entry are separate records, joined by “and”; a condition that tells them apart may be missing. Equal entries are not always repeated.",
  "data": [
    {"smiles": "Nc1ncnc2c1ncn2[C@@H]1O[C@H](COP(=O)(O)OP(=O)(O)OP(=O)(O)O)[C@@H](O)[C@H]1O", "note": "[ATP, Adenosine 5′-triphosphate]", "values": [
      {"measurement": "ORNs in which ATP evoked inward currents", "setting": "[1]; brief (1-10 s) applications, perforated-patched mouse ORNs, 27/69 ORNs", "result": 39, "unit": "%"},
      {"measurement": "Imax", "setting": "[1]; [3]", "result": "−29±8", "unit": "pA"},
      {"measurement": "latency of inward current", "setting": "[1]; [3]", "result": "1140 ± 236", "unit": "ms"},
      {"measurement": "Imax", "setting": "[1]; [4]", "result": "−235±74", "unit": "pA"},
      {"measurement": "latency of inward current", "setting": "[1]; [4]", "result": "81 ± 15", "unit": "ms"},
      {"measurement": "odor-responsive cells with a significant decrease in the summed [Ca2+]i increase", "setting": "[2]; co-application of 10 μM ATP and odor (10 μM n-amyl acetate+10 μM R-carvone)", "result": 62, "unit": "%"},
      {"measurement": "mean suppression of the summed [Ca2+]i increase", "setting": "[2]; co-application of 10 μM ATP and odor, n=26", "result": "57±5% and 57%±5%"},
      {"measurement": "mean enhancement of evoked [Ca2+]i increase", "setting": "[2]; co-application of 10 μM ATP and odor, the two ORNs with >20% increase", "result": "157±34", "unit": "%"}
    ]}
  ]
}
